Results from patent US20240279205A1, “NOVEL BENZIMIDAZOLE DERIVATIVE” (Carna Biosciences, Inc., priority 2020, published 2024).
Where a name gives a salt, the structure may show the parent alone.

target: T1, human STING (hSTING) (Homo sapiens, UniProt Q86WV6); test: Inhibition test of intracellular human STING (hSTING) pathway using SEAP reporter cells (HEK-Blue ISG), stimulation with Compound 3; type: cell-based; set-up: hSTING inhibitory activity: scale not given here; settings: Compound 3 10 nM stimulation, 21 hours
T1 construct: host or cells: HEK-Blue ISG cells (HEK293-derived SEAP reporter line)
T1 sequence (Q86WV6 whole entry H232R): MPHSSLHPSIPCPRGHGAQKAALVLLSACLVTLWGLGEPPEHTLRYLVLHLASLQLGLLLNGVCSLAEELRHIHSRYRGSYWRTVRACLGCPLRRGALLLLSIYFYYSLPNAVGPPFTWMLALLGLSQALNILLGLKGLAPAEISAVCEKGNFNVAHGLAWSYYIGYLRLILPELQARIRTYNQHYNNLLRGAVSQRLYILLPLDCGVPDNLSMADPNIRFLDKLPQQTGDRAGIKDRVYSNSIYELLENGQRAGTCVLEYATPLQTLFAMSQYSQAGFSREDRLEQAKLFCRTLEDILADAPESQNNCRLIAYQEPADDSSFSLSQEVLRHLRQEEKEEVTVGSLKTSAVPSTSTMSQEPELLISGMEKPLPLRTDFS
Procedure, shortened: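 HEK-Blue ISG cells with IRF-inducible SEAP reporter, pretreated 1 h with compound (final 0.1 to 10 μM), then stimulated with Compound 3 (final 10 nM) for 21 h at 37° C. Supernatant SEAP measured colorimetrically; IC50 from log-concentration regression, normalized to stimulated (100%) and unstimulated (0%) controls.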

hSTING inhibitory activity | SMILES
* * | C1=C(c2ccnc3c(Nc4nc5cc(Oc6ccccc6)ccc5[nH]4)c[nH]c23)CCCC1 [Embodiment 162, N-[7-(Cyclohex-1-en-1-yl)-1H-pyrrolo[3,2-b]pyridin-3-yl]-5-phenoxy-1H-benzo[d]imidazole-2-amine]
* * | Fc1cc(C2CCOCC2)cc2nc(Nc3c[nH]c4ccc(Cl)nc34)[nH]c12 [Embodiment 175, N-(5-Chloro-1H-pyrrolo[3,2-b]pyridin-3-yl)-7-fluoro-5-(tetrahydro-2H-pyran-4-yl)-1H-benzo[d]imidazol-2-amine]
* * | Fc1cc2[nH]c(Nc3c[nH]c4ccc(Cl)nc34)nc2cc1Oc1ccccc1 [Embodiment 193, N-(5-Chloro-1H-pyrrolo[3,2-b]pyridin-3-yl)-6-fluoro-5-phenoxy-1H-benzo[d]imidazol-2-amine]
* * | Cn1c(Nc2c[nH]c3ccc(Cl)nc23)nc2cc(F)c(Oc3ccccc3)cc21 [Embodiment 194, N-(5-Chloro-1H-pyrrolo[3,2-b]pyridin-3-yl)-5-fluoro-1-methyl-6-phenoxy-1H-benzo[d]imidazol-2-amine]
* * | Cn1c(Nc2c[nH]c3ccc(Cl)cc23)nc2cc(C3CCOCC3)ccc21 [Embodiment 197, N-(5-Chloro-1H-indol-3-yl)-1-methyl-5-(tetrahydro-2H-pyran-4-yl)-1H-benzo[d]imidazole-2-amine formate]

same assay, conditions: Compound 3 10 nM stimulation, 21 hours, read-out: hSTING inhibitory activity

IC50 | SMILES
≥ 10 µM | COc1ccc2nc(Nc3c[nH]c4ccc(Cl)nc34)n(C)c2c1 [Embodiment 161, N-(5-Chloro-1H-pyrrolo[3,2-b]pyridin-3-yl)-6-methoxy-1-methyl-1H-benzo[d]imidazol-2-amine]
≥ 10 µM | COCCn1c(Nc2c[nH]c3ccc(Cl)nc23)nc2c(C(F)(F)F)cccc21 [Embodiment 167, N-(5-Chloro-1H-pyrrolo[3,2-b]pyridin-3-yl)-1-(2-methoxyethyl)-4-(trifluoromethyl)-1H-benzo[d] imidazole-2-amine]
≥ 10 µM | Cn1c(Nc2c[nH]c3ccc(Cl)nc23)nc2cc(F)ccc21 [Embodiment 168, N-(5-Chloro-1H-pyrrolo[3,2-b]pyridin-3-yl)-5-fluoro-1-methyl-1H-benzo[d]imidazol-2-amine formate]
1 to 10 µM | C=Cc1ccc2[nH]cc(Nc3nc4cc(C(F)(F)F)ccc4n3C)c2n1 [Embodiment 171, 1-methyl-5-(trifluoromethyl)-N-(5-vinyl-1H-pyrrolo[3,2-b]pyridin-3-yl)-1H-benzo[d]imidazol-2-amine]
1 to 10 µM | Cn1c(Nc2c[nH]c3ccc(Cl)nc23)nc2cc(Cl)ccc21 [Embodiment 172, 5-Chloro-N-(5-chloro-1H-pyrrolo [3,2-b]pyridin-3-yl)-1-methyl-1H-benzo[d]imidazol-2-amine]
≥ 10 µM | CCc1ccc2[nH]cc(Nc3nc4cc(C(F)(F)F)ccc4n3C)c2n1 [Embodiment 173, N-(5-ethyl-1H-pyrrolo[3,2-b]pyridin-3-yl)-1-methyl-5-(trifluoromethyl)-1H-benzo[d]imidazol-2-amine]
≥ 10 µM | Cn1c(Nc2c[nH]c3ccc(Cl)nc23)nc2ccc(Oc3ccc(C#N)cc3)cc21 [Embodiment 174, 4-({2-[(5-chloro-1H-pyrrolo[3,2-b]pyridin-3-yl)amino]-1-methyl-1H-benzo[d]imidazol-6-yl} Oxy)benzonitrile]
≥ 10 µM | COCCn1c(Nc2c[nH]c3ccc(Cl)nc23)nc2ccc(C(F)(F)F)cc21 [Embodiment 179, N-(5-chloro-1H-pyrrolo[3,2-b]pyridin-3-yl)-1-(2-methoxyethyl)-6-(trifluoromethyl)-1H-benzo[d]imidazol-2-amine]
≥ 10 µM | COCCn1c(Nc2c[nH]c3ccc(Cl)nc23)nc2cccc(C(F)(F)F)c21 [Embodiment 180, N-(5-chloro-1H-pyrrolo[3,2-b]pyridin-3-yl)-1-(2-methoxyethyl)-7-(trifluoromethyl)-1H-benzo[d]imidazol-2-amine]
≥ 10 µM | Cn1c(Nc2c[nH]c3ccc(Cl)nc23)nc2c(F)c(F)ccc21 [Embodiment 183, N-(5-Chloro-1H-pyrrolo[3,2-b]pyridin-3-yl)-4,5-difluoro-1-methyl-1H-benzo[d]imidazol-2-amine]
≥ 10 µM | Cn1c(Nc2c[nH]c3ccc(Cl)nc23)nc2ccc(F)c(F)c21 [Embodiment 184, N-(5-Chloro-1H-pyrrolo[3,2-b]pyridin-3-yl)-6,7-difluoro-1-methyl-1H-benzo[d]imidazol-2-amine]
≥ 10 µM | Cn1c(Nc2c[nH]c3ccc(Cl)nc23)nc2cc(Oc3cccnc3)ccc21 [Embodiment 198, N-(5-chloro-1H-pyrrolo[3,2-b]pyridin-3-yl)-1-methyl-5-(pyridin-3-yloxy)-1H-benzo[d]imidazole-2-amine]
≥ 10 µM | COCCn1c(Nc2c[nH]c3ccc(Cl)nc23)nc2c(F)c(F)ccc21 [Embodiment 200, N-(5-chloro-1H-pyrrolo[3,2-b]pyridin-3-yl)-4,5-difluoro-1-(2-methoxyethyl)-1H-benzo[d] imidazole-2-amine]
≥ 10 µM | COCCn1c(Nc2c[nH]c3ccc(Cl)nc23)nc2ccc(F)c(F)c21 [Embodiment 201, N-(5-chloro-1H-pyrrolo[3,2-b]pyridin-3-yl)-6,7-difluoro-1-(2-methoxyethyl)-1H-benzo[d]imidazole-2-amine]
≥ 10 µM | COCCn1c(Nc2c[nH]c3ccc(Cl)nc23)nc2c(F)cc(F)cc21 [Embodiment 202, N-(5-chloro-1H-pyrrolo[3,2-b]pyridin-3-yl)-4,6-difluoro-1-(2-methoxyethyl)-1H-benzo[d]imidazole-2-amine]
≥ 10 µM | Cn1c(Nc2c[nH]c3ccc(Cl)nc23)nc2c(F)cc(F)cc21 [Embodiment 203, N-(5-Chloro-1H-pyrrolo[3,2-b]pyridin-3-yl)-4,6-difluoro-1-methyl-1H-benzo[d]imidazol-2-amine]
≥ 10 µM | Cn1c(Nc2c[nH]c3ccc(Cl)nc23)nc2cc(F)cc(F)c21 [Embodiment 204, N-(5-Chloro-1H-pyrrolo[3,2-b]pyridin-3-yl)-5,7-difluoro-1-methyl-1H-benzo[d]imidazol-2-amine]
≥ 10 µM | COCCn1c(Nc2c[nH]c3ccc(Cl)nc23)nc2cc(F)cc(F)c21 [Embodiment 205, N-(5-chloro-1H-pyrrolo[3,2-b]pyridin-3-yl)-5,7-difluoro-1-(2-methoxyethyl)-1H-benzo[d]imidazole-2-amine]
1 to 10 µM | CC(C)Oc1ccc2nc(Nc3c[nH]c4ccc(Cl)nc34)n(C)c2c1 [Embodiment 209, N-(5-Chloro-1H-pyrrolo[3,2-b]pyridin-3-yl)-6-isopropoxy-1-methyl-1H-benzo[d]imidazol-2-amine]
≥ 10 µM | Cn1c(Nc2c[nH]c3ccc(Cl)nc23)nc2ccc(OC(F)(F)F)cc21 [Embodiment 211, N-(5-Chloro-1H-pyrrolo[3,2-b]pyridin-3-yl)-1-methyl-6-(trifluoromethoxy)-1H-benzo[d] imidazol-2-amine]

Further lines, the molecule ahead of its results:

SMILES | IC50
c1ccc(Oc2ccc3[nH]c(Nc4c[nH]c5c(-c6ccncc6)ccnc45)nc3c2)cc1 [Embodiment 163, 5-phenoxy-N-[7-(pyridin-4-yl)-1H-pyrrolo[3,2-b]pyridin-3-yl]-1H-benzo[d]imidazol-2-amine] | ≥ 10 µM
c1ccc(Oc2ccc3[nH]c(Nc4c[nH]c5c(-c6cccnc6)ccnc45)nc3c2)cc1 [Embodiment 164, 5-phenoxy-N-[7-(pyridin-3-yl)-1H-pyrrolo[3,2-b]pyridin-3-yl]-1H-benzo[d]imidazol-2-amine] | 1 to 10 µM
Cn1ccc(-c2ccnc3c(Nc4nc5cc(Oc6ccccc6)ccc5[nH]4)c[nH]c23)n1 [Embodiment 165, N-[7-(1-methyl-1H-pyrazol-3-yl)-1H-pyrrolo[3,2-b]pyridin-3-yl]-5-phenoxy-1H-benzo[d]imidazole-2-amine] | 1 to 10 µM
CN(C)C(=O)c1cccc2[nH]c(Nc3c[nH]c4ccc(Cl)nc34)nc12 [Embodiment 166, 2-[(5-Chloro-1H-pyrrolo[3,2-b]pyridin-3-yl)amino]-N,N-dimethyl-1H-benzo[d]imidazole-4-carboxamide] | ≥ 10 µM
Cc1c(F)ccc2[nH]c(Nc3c[nH]c4ccc(Cl)nc34)nc12 [Embodiment 176, N-(5-Chloro-1H-pyrrolo[3,2-b]pyridin-3-yl)-5-fluoro-4-methyl-1H-benzo[d]imidazol-2-amine formate] | 1 to 10 µM
O=[N+]([O-])c1cc2[nH]c(Nc3c[nH]c4ccc(Cl)nc34)nc2cc1F [Embodiment 177, N-(5-Chloro-1H-pyrrolo[3,2-b]pyridin-3-yl)-5-fluoro-6-nitro-1H-benzo[d]imidazol-2-amine] | 1 to 10 µM
COCCn1c(Nc2c[nH]c3ccc(Cl)nc23)nc2cc(-c3ccccc3)ccc21 [Embodiment 181] | ≥ 10 µM
COCCn1c(Nc2c[nH]c3ccc(Cl)nc23)nc2ccc(-c3ccccc3)cc21 [Embodiment 182] | ≥ 10 µM
COCCn1c(Nc2c[nH]c3ccc(Cl)nc23)nc2cc(Oc3cccnc3)ccc21 [Embodiment 206, N-(5-chloro-1H-pyrrolo[3,2-b]pyridin-3-yl)-1-(2-methylxhetyl)-5-(pyridin-3-yloxy)-1H-benzo[d] imidazol-2-amine] | ≥ 10 µM
COCCn1c(Nc2c[nH]c3ccc(Cl)nc23)nc2ccc(Oc3cccnc3)cc21 [Embodiment 207, N-(5-Chloro-1H-pyrrolo[3,2-b]pyridin-3-yl)-1-(2-methylxhetyl)-6-(pyridin-3-yloxy)-1H-benzo[d] imidazol-2-amine] | ≥ 10 µM
Cn1cnc(-n2c(Nc3c[nH]c4ccc(Cl)cc34)nc3cc(C(F)(F)F)ccc32)c1 [Embodiment 227, N-(5-Chloro-1H-indol-3-yl)-1-(1-methyl-1H-imidazol-4-yl)-5-(trifluoromethyl)-1H-benzo[d] imidazole-2-amine] | ≥ 10 µM
